Experimental data: patent publication US20130273557A1 (priority 2010, published 2013)

Key:
[1] = system: leak conductance of urea-treated SMVs; assay: Patch clamp recordings of urea-treated SMVs (F1 removed); type: biochemical, rat
Protocol: F1 subunits were removed from SMVs by adapting previously-established methods. 60 mg SMV's/1 mL IB was treated with 1 mL of […] for 5 min. on ice, then centrifuged at 21000×g for 10 min. The pellet was washed 3× in IB (centrifugation at 21000×g for 10 min) and stored in IB.
Giga-ohm seals were formed on SMVs using pipettes and solutions as above. Peak membrane conductance was measured as described above.

[2] = molecular target: complex V (F1FO ATPase) (Rattus norvegicus, UniProt P19511+Q06647); assay: ATP hydrolysis in SMVs, luciferin-luciferase assay; type: biochemical; design: from tissue; host or cells: rat brain mitochondria, lubrol-insoluble submitochondrial vesicles (SMVs); settings: in these assays (NADH and luciferase)
Excerpt: 3 wells were used for each condition, repeated at least 3× on different SMV isolations.

[3] = system: models of cell death and NDDs; settings: non-dopaminergic mechanism; cited from earlier work
[4] = system: calcium (Ca2+)-induced membrane currents in rat liver mitoplasts; settings: cited from earlier work
[5] = system: C2C12 cells
Protocol: (§1) Data are presented as a percentage of the vehicle-treated control ±SEM (n=10 wells at each concentration). […] Experiments commenced 18 hr. after addition of drug. […] Data are presented as a percentage of the vehicle-treated control±SEM (n=14-17 wells for each group).
(§2) The C2C12 mouse myoblast cell line (ATCC, Manasses, Va.) was cultured in Dulbecco's Modified Eagle Medium (DMEM; Gibco®; Carlsbad, Calif.) supplemented with 10% fetal bovine serum (FBS), 2 mM GlutaMax® and penicillin/streptomycin. Cells were maintained in 10% CO2 humidified at 37° C.
(§3) Cellular viability was measured using CellTiter-Blue® (Promega Corp., Madison, Wis.) in black-walled optical imaging multiwell plates, and cellular ATP was measured using the CellTiter-Glo® (Promega Corp., Madison, Wis.) luminescence assay in opaque-walled multiwell plates according to the manufacturer's protocol.

[6] = system: SH-SY5Y neuroblastoma cells; assay: PSI-induced cell death in SH-SY5Y cells (CellTiter-Blue); settings: 24 hr exposure to PSI at 150 or 650 nM
Protocol: Data shown represent mean±SEM. […] Bar graphs represent normalized mean±SEM. Cell viability was measured by CellTiter-Blue®; n=41-98 wells/condition.
Undifferentiated SH-SY5Y human neuroblastoma cells (ATCC, Manasses, Va.) were maintained in humidified 5% CO2 in 1:1 Ham's F12 nutrient mixture with Glutamax® and Minimal Essential Medium with L-glutamine (MEM-Alpha), 10% FBS, and 1% penicillin/streptomycin (Gibco® Invitrogen Corp., Carlsbad, Calif.).
as §3

[7] = system: C2C12 cells; type: cell-based, mouse
Protocol: as §1, §2, §3

[8] = system: C2C12 myoblasts; assay: OCR and ECAR in C2C12 myoblasts (Seahorse); type: cell-based, mouse; settings: dexpramipexole 30 μM or PSI 30 nM alone, 18 hr
Protocol: as §2
OCR and ECAR were measured with a Seahorse® XF24 Flux Analyzer (Seahorse Bioscience, Billerica, Mass.). For PSI experiments on C2C12 cells, basal values were assessed in non-buffered DMEM Assay Medium without glucose, glutamine or pyruvate, and supplemented with 25 mM glucose, 6 mM Glutamax®, and 1 mM sodium pyruvate. […] Succinate and ADP stocks were diluted to 10× concentrations in pre-warmed XF MAS buffer, pH 7.2. Using a Plate Prep Station (Seahorse Bioscience, Billerica, Mass.), cells were washed with 1 mL buffer and were brought to 607 μL with buffer. […] Raw basal OCR and ECAR values were normalized as a percent of the mean control value for each individual experiment. Normalized data from experiments were expressed as mean±SEM.

[9] = molecular target: T1, intermediate- and large-conductance channel activity of PSI-mitochondria (Rattus norvegicus, UniProt P19511+Q06647); assay: Patch clamp recording of brain-derived PSI-mitochondria; type: biochemical; settings: subcortex mitochondria vs control animals
T1 sequence (P19511 43-256): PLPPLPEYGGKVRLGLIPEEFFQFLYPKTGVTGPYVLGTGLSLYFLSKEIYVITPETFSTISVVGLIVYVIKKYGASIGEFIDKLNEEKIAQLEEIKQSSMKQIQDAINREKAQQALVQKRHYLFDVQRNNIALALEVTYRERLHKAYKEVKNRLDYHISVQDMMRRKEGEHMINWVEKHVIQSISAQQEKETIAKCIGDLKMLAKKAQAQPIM
T1 sequence (Q06647 24-213): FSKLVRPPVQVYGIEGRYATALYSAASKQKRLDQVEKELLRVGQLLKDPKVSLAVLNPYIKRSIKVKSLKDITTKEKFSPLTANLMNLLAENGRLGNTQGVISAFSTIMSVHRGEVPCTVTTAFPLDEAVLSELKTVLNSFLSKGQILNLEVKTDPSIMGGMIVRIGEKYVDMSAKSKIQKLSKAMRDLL
Protocol: Isolation of Brain-derived Mitochondria. Standard techniques were adapted for isolating brain-derived mitochondria. Mitochondria were stored in isolation buffer (IB) at −80° C. For PSI-mitochondria, male Sprague-Dawley rats (6 wo, ˜200 gm, 3-6 rats/group/condition, at least 2 different preparations/experimental paradigm) were injected with the ubiquitin proteasome inhibitor Z-Ile-Glu(OtBu)-Ala-Leu-al (PSI; Peptides International Inc, Kentucky, USA; s.c. every other day for 1 or 2 weeks; 6.0 mg/kg PSI in DMSO, or with DMSO, 200 μL/rat), and mitochondria isolated and stored as above.
Reagents were rapidly perfused into the recording chamber.

[10] = system: digitonin-treated cortical neurons; assay: ATP production following ADP pulse in digitonin-treated cortical neurons; type: cell-based, rat; settings: dexpramipexole 30 μM

**Q.** With Nc1ncnc2c1ncn2[C@@H]1O[C@H](COP(=O)(O)OP(=O)(O)OP(=O)(O)O)[C@@H](O)[C@H]1O [ATP, adenosine triphosphate, reference compound] as the molecule, how does the “leak conductance after removal of F1” value [1] read?
**A.** The value was “still very effectively decreased the leak conductance”.

**Q.** With CC[C@H]1/C=C/C=C/C[C@@H](C)[C@H](O)[C@@](C)(O)C(=O)[C@@H](C)[C@H](O)[C@@H](C)C(=O)[C@@H](C)[C@H](O)[C@@H](C)/C=C/C(=O)O[C@@H]2[C@H](C)[C@H](CC1)O[C@]1(CC[C@H](C)[C@H](C[C@@H](C)O)O1)[C@H]2C [oligomycin, reference compound] as the molecule, how does the ATP hydrolysis [2] read?
**A.** The ATP hydrolysis was “effectively inhibited ATP hydrolysis”.

**Q.** For CCCN[C@H]1CCc2nc(N)sc2C1 [pramipexole, (6S)-4,5,6,7-tetrahydro-N6-propyl-2,6-benzothiazole-diamine, reference compound], which protective concentrations [3] is on record?
**A.** The protective concentrations was ≥ 10 µM.

**Q.** And the “Ca2+-induced membrane currents” value [4]?
**A.** The value was “inhibit”.

**Q.** Which “concentrations reducing cellular viability” value ([5]; 18 hr exposure) does the source give for “Z-Ile-Glu(OtBu)-Ala-Leu-H [PSI, reference compound]” here?
**A.** Its value is > 60 nM.

**Q.** What about the cell viability ([5]; dexpramipexole 30 μM or PSI 30 nM, 18 hr, relative to control) of the same molecule?
**A.** Its cell viability is “neither ATP levels nor cell viability (FIG. 5b) were significantly affected”.

**Q.** What about the cell viability [6] of the same molecule?
**A.** The cell viability was “significant decreases in cell viability”.

**Q.** And the ATP levels [7]?
**A.** The ATP levels was “neither ATP levels nor cell viability (FIG. 5b) were significantly affected”.

**Q.** What about the ECAR [8] of the same molecule?
**A.** Its ECAR is “very significant increase in ECAR”.

**Q.** What about the OCR [8] of the same molecule?
**A.** The OCR was “did not display a significant change in OCR”.

**Q.** What about the “intermediate- and large-conductance mitochondrial ion channel activity after repeated pre-treatment of rats” value [9] of the same molecule?
**A.** Its value is “significant increase”.

**Q.** Which results are given for antimycin A [reference compound]?
**A.** initial slope of ATP synthesis following an ADP pulse [10]: significantly reduced; maximal ATP levels [10]: significantly reduced
